From US9539249B2, “PPAR gamma agonists for treatment of multiple sclerosis” (InteKrin Therapeutics, Inc., priority 2013, dated 2017)
Entries after “also recorded” stand apart in the source; their conditions may differ. Like-named read-outs stand apart in the source and are kept apart here. Each block holds one compound with its values, some of them ahead of it.

Tests used:
[1] = HPLC fractionation of radiolabeled INT131 before injection and at the close of the experiment; type: physicochemical; conditions: prior to injection and at the close of the experiment
Protocol: (§1) To test whether INT131 is able to penetrate the intact BBB INT131 was radiolabeled with tritium (“[^3H]INT131”), prior to intraperitoneal injection into adult Sprague-Dawley rats. The purity of the radiolabeled INT131 was determined by high-performance liquid chromatography (HPLC) fractionation prior to injection, and again at the close of the experiment. […] The test animals were sacrificed at 1, 6 and 24 hours after injection and blood, brain, cerebrospinal fluid (“CSF”), spinal cord, kidney, liver and small bowel were harvested for determination of [^3H]INT131 content by liquid scintillography.

EAE = EAE relapse model, INT131 treatment begun at first remission; type: in vivo, mice; conditions: for clinical course from the 22nd day following immunization: treated from day 20, vehicle animals relapsed; for relapse rate (percent of animals relapsed): 25th day post-immunization, vehicle 72 percent
From the text: EAE is a well-characterized and widely used model of MS. It is one of the few animal models in which drug therapeutic activity in the model often mimics and anticipates the drug's effects in human disease. In this model, mice are immunized with well-defined antigenic fragments of central nervous system myelin, such as fragments of the proteolipid protein (PLP). Over the course of 2 to 3 weeks the immunized animals develop a clinical and histopathologic syndrome of T-cell mediated cerebral autoimmunity that is highly reminiscent of relapsing/remitting MS (RRMS). The similarities between EAE and RRMS include inflammatory cerebral infiltrated and accompanying Th1/Th17 responses to both the disease initiating myelin PLP peptide, and subsequent epitope spread, seen in disease relapse. The animals were immunized with the myelin peptide (PLP^139-151) and the spread epitope peptide (PLP^178-191) which drives disease relapse. Studies consisted of three experimental arms in which the mice were given daily ip injection of vehicle, or either 1 or 3 mg/kg/d of INT131. Following immunization, the animals underwent daily neurological evaluation by an experienced investigator. In these studies treatment began at the time of the first remission. […] Following the expected clinical disease peak at about two weeks post-immunization, symptoms began to ebb as the animals drifted into remission. All of the animals were treated with INT131 on day 20. By the 22nd day following immunization relapse began as expected, however, only in the vehicle treated animals.

[2] = system: infiltrating CD45-positive leukocytes; assay: CD45-positive leukocyte infiltration in brainstem of EAE mice treated at the peak of disease; type: in vivo
From the text: Initiating INT131 treatment during remission extends the time subjects remain relapse-free, as compared to vehicle/placebo treatment. However, because there is little active neuroinflammation during remission, this paradigm is not informative about the effects of INT131 on acute neuroinflammation. To better understand the effects of INT131 on the acute inflammatory response we treated mice with EAE at the height of the clinical disease. […] INT131 treatment was begun at the peak of disease (day 20) and brainstems were harvested at day 32, and stained with αCD45 to identify infiltrating leukocytes. CD45 (also known as Leukocyte Common Antigen) is expressed on all hematopoietic cells except erythrocytes and platelets, and is required for B- and T cell-receptor-mediated activation. Thus, CD45 is critical in mediating the inflammatory process. […] These findings unify the clinical and histological findings that INT131 is a potent and effective treatment of acute neuroinflammation in this model of RRMS.

[3] = Tissue distribution of [3H]INT131 after intraperitoneal injection (penetration of the intact BBB); type: in vivo, Sprague-Dawley rats; conditions: for concentration at 6 h: 6 h after ~50 mg/kg ip; for concentration at 24 h: 24 h after ~50 mg/kg ip
Protocol: as §1

[4] = Sprague-Dawley, CSF, intraperitoneal, rat, read-out: INT131 concentration in CSF
[5] = Sprague-Dawley, blood, intraperitoneal, rat, read-out: INT131 concentration in Blood
[6] = Sprague-Dawley, brain, intraperitoneal, rat, read-out: INT131 concentration in Brain
[7] = Sprague-Dawley, kidney, intraperitoneal, rat, read-out: INT131 concentration in Kidney
[8] = Sprague-Dawley, liver, intraperitoneal, rat, read-out: INT131 concentration in Liver
[9] = Sprague-Dawley, small bowel, intraperitoneal, rat, read-out: INT131 concentration in Small bowel
[10] = Sprague-Dawley, spinal cord, intraperitoneal, rat, read-out: INT131 concentration in Spinal cord

SMILES: O=S(=O)(Nc1cc(Cl)c(Oc2cnc3ccccc3c2)c(Cl)c1)c1ccc(Cl)cc1Cl [[^3H]INT131]
stability of radiolabeled material over the course of the study (HPLC) [1]: virtually all of the radiolabeled material was found in a single peak

concentration at 1 h ([3]; Sprague-Dawley, CSF, intraperitoneal, 1 h after ~50 mg/kg ip, rat, read-out: INT131 concentration in CSF): 292 ng/g
concentration at 6 h [3, 4]: 2860 ng/g
concentration at 24 h [3, 4]: 5300 ng/g
concentration at 1 h ([3]; Sprague-Dawley, blood, intraperitoneal, 1 h after ~50 mg/kg ip, rat, read-out: INT131 concentration in Blood): 4050 ng/g
concentration at 6 h [3, 5]: 41800 ng/g
concentration at 24 h [3, 5]: 17900 ng/g
concentration at 1 h ([3]; Sprague-Dawley, brain, intraperitoneal, 1 h after ~50 mg/kg ip, rat, read-out: INT131 concentration in Brain): 569 ng/g
concentration at 6 h [3, 6]: 5980 ng/g
concentration at 24 h [3, 6]: 4650 ng/g
concentration at 1 h ([3]; Sprague-Dawley, kidney, intraperitoneal, 1 h after ~50 mg/kg ip, rat, read-out: INT131 concentration in Kidney): 7730 ng/g
concentration at 6 h [3, 7]: 32900 ng/g
concentration at 24 h [3, 7]: 15400 ng/g
concentration at 1 h ([3]; Sprague-Dawley, liver, intraperitoneal, 1 h after ~50 mg/kg ip, rat, read-out: INT131 concentration in Liver): 24400 ng/g
concentration at 6 h [3, 8]: 141000 ng/g
concentration at 24 h [3, 8]: 36400 ng/g
Kp at 6 h ([3]; Sprague-Dawley, rat, brain and spinal cord relative to blood, intraperitoneal, 50 mg/kg, 6 hours after injection, read-out: level of INT131 in brain and spinal cord relative to the level found in blood): ~0.1
concentration at 1 day ([3]; Sprague-Dawley, rat, brain and spinal cord, intraperitoneal, 50 mg/kg, 1 day after injection, read-out: absolute amount of INT131 in the brain and spinal cord): > 4000 ng/g
concentration at 1 h ([3]; Sprague-Dawley, rat, neural compartments (brain tissue), intraperitoneal, one hour after single administration of ~50 mg/kg, read-out: average amount of INT131 in the neural compartments): < 500 ng/g
Kp at 24 h ([3]; Sprague-Dawley, rat, neural tissues relative to circulation (blood), intraperitoneal, 50 mg/kg, 24 hours after injection, read-out: level of INT131 in neural tissues relative to that found in the circulation): 0.25
concentration at 1 h ([3]; Sprague-Dawley, small bowel, intraperitoneal, 1 h after ~50 mg/kg ip, rat, read-out: INT131 concentration in Small bowel): 19700 ng/g
concentration at 6 h [3, 9]: 223000 ng/g
concentration at 24 h [3, 9]: 34500 ng/g
concentration at 1 h ([3]; Sprague-Dawley, spinal cord, intraperitoneal, 1 h after ~50 mg/kg ip, rat, read-out: INT131 concentration in Spinal cord): 478 ng/g
concentration at 6 h [3, 10]: 4810 ng/g
concentration at 24 h [3, 10]: 4310 ng/g
increase of the amount of INT131 in the neural tissues versus 1 hour ([3]; at 6 and 24 hours): approximately 10 fold
amount in neural compartments, fold less than that found in the circulation ([3]; one hour after single administration of ~50 mg/kg): approximately 10 fold
SMILES: O=S(=O)(Nc1cc(Cl)c(Oc2cnc3ccccc3c2)c(Cl)c1)c1ccc(Cl)cc1Cl [INT131]
clinical course from the 22nd day following immunization (EAE; 1 mg/kg): continued to improve slightly
relapse rate (percent of animals relapsed) (EAE; 1 mg/kg/d ip): 9%
clinical course from the 22nd day following immunization (EAE; 3 mg/kg): remained stable
relapse rate (percent of animals relapsed) (EAE; 3 mg/kg/d ip): 16%
disease burden among treated animals that relapse (EAE; in comparison to vehicle treated mice): exceptionally mild
symptoms of animals with EAE (EAE; mouse, in vivo): becoming and remaining mostly symptom-free
effect on relapse (EAE; treatment begun at first remission): virtually blocks relapse
clinical symptoms ([2]; treatment at the height of clinical disease): rapid improvement in clinical symptoms
infiltrating CD45-positive leukocytes in brainstem ([2]; treatment from day 20 (peak of disease), brainstems harvested day 32, either concentration, compared to vehicle): paucity of infiltrating CD45-positive leukocytes; also recorded: paucity of infiltrating white cells
